From US11147847B2, “Extracts from plants of the Moringaceae family and methods of making” (Rutgers, The State University of New Jersey, priority 2013, dated 2021)

How the values were obtained:
[1] = Accelerated stability of MICs in moringa extract at 37° C. (LCMS); format: physicochemical; conditions: moringa extract stored at 37° C. for 30 days, compared to day 0
HII4E liver cells = test: In vitro gluconeogenesis: glucose production in liver cells; format: cell-based, rat; conditions: same concentrations as SF
Protocol: (§1) H4IIE rat hepatoma cells (CRL-1548, American Type Culture Collection, Manassas, Va.) were assayed for glucose production as previously described (21). Cell viability was measured by the 3-(4,5-Dimethyl-2-thiazolyl)-2,5-diphenyltetrazolium bromide (MTT; TCI, Portland, Oreg.) assay (22). RNA extraction, cDNA synthesis and qPCR for gene expression of PEPCK and G6P were performed as described above.

TNF-α = test: LPS-induced TNF-α gene expression in RAW 264.7 macrophages (qPCR); format: cell-based; conditions: any of the concentrations tested; LPS-induced RAW 264.7
Protocol: (§2) All reagents were supplied from Sigma-Aldrich Co. (St. Louis, Mo.) unless otherwise noted. RAW 264.7 macrophages (ATCC TIB-71) were maintained in Dulbecco's modified Eagle's medium (Caisson, North Logan, Utah) supplemented with 100 U/mL penicillin, 100 μg/mL streptomycin, and 10% fetal bovine serum. Cells were incubated at 37° C. in a 5% CO2 humidified atmosphere and subcultured by cell scraping. For experiments, RAW cells were plated at a density of 4×10^5 cells/mL in 24-well plates. Cells were incubated overnight (18 h), washed with warm 37° C. PBS, and medium was replaced fresh DMEM medium. […] Lipopolysaccharide (1 μg/mL) was added after 2 h incubation with treatments to elicit inflammatory responses. Cells were treated in duplicate or triplicate. After an additional 6 h incubation period, media were collected and cells were washed with PBS prior to collection in TRIzol® Reagent (Ambion, Life Technologies). […]
(§3) Total RNA was extracted from cells according to manufacturer's specifications. […] RNA integrity was evaluated by running about 1 μg of RNA on a 1% agarose gel. […]
(§4) Quantitative PCR amplifications were performed on an ABI 7300 Real-Time PCR System (Applied Biosystems) with the following thermal cycler profile: 2 minutes, 50° C.; 10 minutes, 95° C.; 15 seconds, 95° C.; 1 minute, 60° C. for the dissociation stage; 15 seconds, 95° C.; 1 minutes, 60° C.; and 15 seconds, 95° C. […]

RAW 264.7 macrophages = test: MTT-based cell viability assay; conditions: concentrations tested in anti-inflammatory assays
Protocol: The effect of the treatments on cell viability was measured using MTT [3-(4,5-dimethyl-2-thiazolyl)-2,5-diphenyltetrazolium bromide] (TCI, Portland, Oreg.) (Mosmann, 1983). MTT (5 mg/mL) was dissolved in PBS (Cayman Chemical, Ann Arbor, Mich.), filtered through a 0.22 μm membrane and added to treated cells during the last 3-4 hours of treatment. Media were carefully aspirated and cells were dissolved in DMSO. The absorbance was read at 570 nm.

iNOS = test: LPS-induced iNOS gene expression in RAW 264.7 macrophages (qPCR); format: cell-based; conditions: 1 and 5 μM; LPS-induced RAW 264.7
Protocol: as §2, §3, §4

IL-6 = test: LPS-induced IL-6 gene expression in RAW 264.7 macrophages (qPCR); format: cell-based; conditions: 5 μM; LPS-induced RAW 264.7
Protocol: as §2, §3, §4

IL-1β = test: LPS-induced IL-1β gene expression in RAW 264.7 macrophages (qPCR); format: cell-based; conditions: 1 and 5 μM; LPS-induced RAW 264.7
Protocol: as §2, §3, §4

[2] = 1:5 ratio preparations, rotoevaporation 1 hour at 50° C., compared to freeze-dried samples
Excerpt: Drying the 1:5 ratio preparations can be achieved by rotoevaporation, followed by freeze-drying or spray drying. […] Further concentration of MICs and removal of sugars from the extract can also be performed with solid phase-extraction (SPE).

[3] = In vitro gluconeogenesis: glucose production in liver cells; format: cell-based, rat; conditions: Rattus norvegicus; range of 5 concentrations, HII4E liver cells
Protocol: as §1

Row | IC50 [3] [µM] | Compound | degradation of MIC in moringa extract [1] | glucose production, activity compared to SF (HII4E liver cells) | TNF-α gene expression (TNF-α) | cytotoxicity (MTT-based cell viability) (RAW 264.7 macrophages) | mRNA expression of iNOS (iNOS) | IL-6 gene expression (IL-6) | mRNA expression of IL-1β (IL-1β) | loss of MIC under rotoevaporation conditions [2]
1 |  | C[C@@H]1O[C@@H](Oc2ccc(CN=C=S)cc2)[C@H](O)[C@H](O)[C@H]1O [MIC-1, 4-[(α-rhamnosyloxy)benzyl]isothiocyanate] | approximately 80% | superior activity to SF | no reduction | no signs of cytotoxicity | significant reduction | decrease IL-6 gene expression significantly | significant reduction | No significant loss
2 | 800 | CN(C)C(=N)N=C(N)N [metformin, reference compound] |  |  |  |  |  |  |  | 
3 |  | CC(=O)O[C@@H]1[C@@H](O)[C@@H](O)[C@H](Oc2ccc(CN=C=S)cc2)O[C@H]1C [MIC-4, 4-[(4′-O-acetyl-α-rhamnosyloxy)benzyl]isothiocyanate] | ~20% | superior activity to SF | no reduction | no signs of cytotoxicity | significant reduction |  | significant reduction | No significant loss
